The values that follow are results of earlier work, collected in patent US20060134216A1, “Enteric film coating composition containing enteric polymer micronized with detackifier” (priority 2004, published 2006).

Each structure is given as a SMILES string.

For this data set the following is noted: aqueous solution at pH values under 4.0.

Take `COc1ccc2[nH]c([S+]([O-])Cc3ncc(C)c(OC)c3C)nc2c1` (stereo not shown) [omeprazole]: the half-life entry was “less than ten”.
